The results in this text go back to patent publication US12605351B2, “Method for producing a composition comprising a 3-O-p-coumaroyl ester of tormentic acid from a plant cell culture, applications thereof as antiparasitic agent for the treatment of trypanosomiasis” (LUXEMBOURG INSTITUTE OF SCIENCE AND TECHNOLOGY, priority 2019, dated 2026).

Like-named read-outs stand apart in the source and are kept apart here.

For data set [1], the system named is Human normal fibroblast cell line (WI-38). The data set is described as follows: cells. It counts as cell-based. The settings on record: for cytotoxicity compared with parent oleanolic acid: in words. The procedure:
The cytotoxicity of tested compounds was evaluated in parallel on a Human normal fibroblast cell line (WI-38) cultivated in a humidified atmosphere with 5% CO2 at 37° C. Human normal fibroblast cell line (WI-38) was cultivated in DMEM medium (Life Technologies) containing 4 mM L-glutamine, 1 mM sodium pyruvate supplemented with 10% fetal bovine serum (Sigma) and penicillin-streptomycin (100 UI/mL).
(§1) Suramine (a commercial anti-trypanosomal drug) and camptothecin were used as positive controls. Stock solutions of compounds to be tested were prepared at a concentration of 10 mg/mL in DMSO. The solutions were further diluted in medium (described in 1.1) to give 0.1 mg/mL stock solutions. Extracts and compounds were tested in eight serial three-fold dilutions (final concentration range: 50-0.02 mg/L) in 96-well microliter plates. All tests were performed at least in duplicate.

For data set [2], the system named is Trypanosoma brucei brucei bloodstream forms (strain 427). Put plainly: In vitro antitrypanosomal activity on Tbb BSF. It counts as cell-based. The settings on record: for SI (Selectivity Index): cytotoxicity in WI38 compared to Tbb; for antitrypanosomal activity compared with parent ursolic/oleanolic acid: in words. The procedure:
Antiparasitic activities were evaluated in vitro on Trypanosoma brucei brucei bloodstream forms (strain 427) (Tbb BSF). Tbb BSF were cultured in vitro at 37° C. with 5% CO2 in HMI9 medium containing 10% heat-inactivated fetal bovine serum, […] ([…]) and L-cysteine ([…]).
as §1, with “In vitro tests were performed as previously described by Hoet S. et al. (Planta Med., 2004, 70, 407-413, doi:10.1055/s-2004-818967). Suramine” for “Suramine”

Data set [3] has as its system Trypanosoma brucei brucei. Put plainly: In vivo anti-trypanosomal activity in infected mice. Details: species or system NMRI mice. The settings on record: end of experiment day 19 post-infection. An excerpt: NMRI mice (6-8 weeks of age) obtained from Envigo Laboratories (The Netherlands) were used. All in vivo experiments performed were approved by the Ethical Committee for animals use at the Health Sciences Sector of the Catholic University of Louvain (2017/UCL/MD/017).
Mice were randomly divided into 6 mice per group for 3-O-cis/trans-p-coumaroyltormentic acid (mixture of cis and trans) and ursolic acid, 4 for positive control (Suramine) and 7 for the negative control, and were infested intraperitoneally with 10^4 Trypanosoma brucei brucei. All compounds were solubilized in the vehicle (water-tween 80-ethanol) and administered intraperitoneally. 3-O-cis/trans-p-coumaroyltormentic acid or ursolic acid (UA) were administered at 50 mg/kg at day 3 after infection with the parasite and then every day until day 7 post-infection. Suramine (0.5 mg/kg) was administered while vehicle was used as a negative control. From day 3 post infection, a drop of blood collected each day from mouse-tail was used to count parasitemia.

The mark [4] stands for this setting: cytotoxicity, WI-38 human fibroblasts, Table 3, read-out: WI38 (IC50 μM).
Where [5] appears, read: cytotoxicity, WI-38 human fibroblasts, Table 3, read-out: WI38 (IC50 μg/mL).
The mark [6] stands for this setting: Trypanosoma brucei, Tbb bloodstream forms strain 427, Table 3, read-out: Tbb (IC50 μM).
Setting [7] is: Trypanosoma brucei, Tbb bloodstream forms strain 427, Table 3, read-out: Tbb (IC50 μg/mL).
The mark [8] stands for this setting: Table 4, same methods as example 3, read-out: Antitrypanosomal (Tbb) IC50 (μM, Mean ± Sd).
[9] abbreviates: Table 4, same methods as example 3, read-out: Cytotoxicity (WI38) IC50 (μM, Mean ± Sd).
Setting [10] is: Tbb bloodstream forms strain 427, Table 3.
The mark [11] stands for this setting: Tbb bloodstream forms strain 427, Table 3, read-out: Tbb (IC50 μM).
Where [12] appears, read: cytotoxicity, WI-38 human fibroblasts, Table 3.

For the compound `CC[C@@]1(O)C(=O)OCc2c1cc1n(c2=O)Cc2cc3ccccc3nc2-1` [Camptothecin], the results for the IC50 in data set [1] (setting [4]) and in data set [1] (setting [5]) were 0.12 ± 0.03 µM and 0.04 ± 0.01 µg/mL, respectively.
On to `C[C@H]1[C@H](C)CC[C@]2(C(=O)O)CC[C@]3(C)C(=CC[C@@H]4[C@@]5(C)C[C@@H](O)[C@H](O)C(C)(C)[C@@H]5CC[C@]43C)[C@H]12` [Corosolic Acid], for which the IC50 is 7.3 ± 0.59 µM in data set [2] (setting [6]), 3.45 ± 0.23 µg/mL in data set [2] (setting [7]), 19.8 ± 5.22 µM in data set [1] (setting [4]) and 9.34 ± 2.47 µg/mL in data set [1] (setting [5]). Also, in data set [2], the “SI (Selectivity Index)” value was determined as 2.7.
For `C[C@H]1[C@H](C)CC[C@]2(C(=O)O)CC[C@]3(C)C(=CC[C@@H]4[C@@]5(C)CC[C@H](OC(=O)CCc6ccccc6)C(C)(C)C5CC[C@]43C)[C@H]12` (some centres unmarked) [Derivative (II-1), 3-O-hydrocinnamic ursolic acid], the IC50 in data set [2] (setting [8]) came to 2.22 ± 0.66 µM; in data set [1] it was 142 ± 3.45 µM.
On to `C[C@H]1[C@H](C)CC[C@]2(C(=O)O)CC[C@]3(C)C(=CC[C@@H]4[C@@]5(C)CC[C@H](OC(=O)/C=C/c6ccccc6)C(C)(C)C5CC[C@]43C)[C@H]12` (some centres unmarked) [Derivative (II-2), 3-O-cinnamic ursolic acid], for which, in data set [2] (setting [8]), the IC50 worked out at 68.2 ± 2.15 µM.
On to `C[C@H]1[C@H](C)CC[C@]2(C(=O)O)CC[C@]3(C)C(=CC[C@@H]4[C@@]5(C)CC[C@H](OC(=O)CCc6ccc(F)cc6)C(C)(C)C5CC[C@]43C)[C@H]12` (some centres unmarked) [Derivative (II-3), 3-O-parafluorophenylpropionic ursolic acid], for which the IC50 was 2.45 ± 0.3 µM in data set [2] (setting [8]) and > 165 µM in data set [1].
In the same order, the values of `C[C@H]1[C@H](C)CC[C@]2(C(=O)O)CC[C@]3(C)C(=CC[C@@H]4[C@@]5(C)CC[C@H](OC(=O)CCc6cccc(F)c6)C(C)(C)C5CC[C@]43C)[C@H]12` (some centres unmarked) [Derivative (II-4), 3-O-metafluorophenylpropionic ursolic acid] are 2.67 ± 0.83 µM and > 165 µM.
Take `C[C@H]1[C@H](C)CC[C@]2(C(=O)O)CC[C@]3(C)C(=CC[C@@H]4[C@@]5(C)CC[C@H](OC(=O)CCc6ccccc6F)C(C)(C)C5CC[C@]43C)[C@H]12` (some centres unmarked) [Derivative (II-5), 3-O-orthofluorophenylpropionic ursolic acid]: the IC50 is 1.66 ± 0.38 µM in data set [2] (setting [8]) and > 132 µM in data set [1].
On to `CC1(C)CC[C@]2(C(=O)O)CC[C@]3(C)C(=CC[C@@H]4[C@@]5(C)CC[C@H](OC(=O)CCc6ccccc6)C(C)(C)C5CC[C@]43C)[C@@H]2C1` (some centres unmarked) [Derivative (II-6), 3-O-hydrocinnamic oleanolic acid], for which the IC50 in data set [2] (setting [8]) came out at 2.59 ± 0.87 µM; in data set [1] (setting [9]), 23.5 ± 6.56 µM. For the same compound, in data set [2], the “antitrypanosomal activity compared with parent ursolic/oleanolic acid” value is reported as “significantly increased activity”. For the same compound, the “cytotoxicity compared with parent oleanolic acid” value in data set [1] is “significantly increased”.
Consider `CC1(C)CC[C@]2(C(=O)O)CC[C@]3(C)C(=CC[C@@H]4[C@@]5(C)CC[C@H](OC(=O)/C=C/c6ccccc6)C(C)(C)C5CC[C@]43C)[C@@H]2C1` (some centres unmarked) [Derivative (II-7), 3-O-cinnamic oleanolic acid], for which the IC50 is 6.31 ± 0.96 µM in data set [2] (setting [8]) and 22.3 ± 1.88 µM in data set [1] (setting [9]).
On to `CC1(C)CC[C@]2(C(=O)O)CC[C@]3(C)C(=CC[C@@H]4[C@@]5(C)CC[C@H](OC(=O)CCc6ccc(F)cc6)C(C)(C)C5CC[C@]43C)[C@@H]2C1` (some centres unmarked) [Derivative (II-8), 3-O-parafluorophenylpropionic oleanolic acid], for which the IC50 in data set [2] (setting [8]) came out at 2.88 ± 1.11 µM; in data set [1] (setting [9]), 16.3 ± 3.26 µM. Besides, the “antitrypanosomal activity compared with parent ursolic/oleanolic acid” value in data set [2] is “significantly increased activity”. Further, the “cytotoxicity compared with parent oleanolic acid” value in data set [1] is “significantly increased”.
For the compound `CC1(C)CC[C@]2(C(=O)O)CC[C@]3(C)C(=CC[C@@H]4[C@@]5(C)CC[C@H](OC(=O)CCc6cccc(F)c6)C(C)(C)C5CC[C@]43C)[C@@H]2C1` (some centres unmarked) [Derivative (II-9), 3-O-metafluorophenylpropionic oleanolic acid], the IC50 in data set [2] (setting [8]) turned out to be 1.72 ± 0.07 µM; in data set [1] (setting [9]), 20.7 ± 2.25 µM. Further, the “antitrypanosomal activity compared with parent ursolic/oleanolic acid” value in data set [2] is “significantly increased activity”. In addition, the “cytotoxicity compared with parent oleanolic acid” value in data set [1] is listed as “significantly increased”.
With `CC1(C)CC[C@]2(C(=O)O)CC[C@]3(C)C(=CC[C@@H]4[C@@]5(C)CC[C@H](OC(=O)CCc6ccccc6F)C(C)(C)C5CC[C@]43C)[C@@H]2C1` (some centres unmarked) [Derivative (II-10), 3-O-orthofluorophenylpropionic oleanolic acid], the IC50 in data set [2] (setting [8]) was 4.63 ± 0.28 µM; in data set [1] (setting [9]), 18.6 ± 4.47 µM.
For the compound `CC1(C)CC[C@]2(C(=O)O)CC[C@]3(C)C(=CC[C@@H]4[C@@]5(C)C[C@@H](O)[C@H](O)C(C)(C)[C@@H]5CC[C@]43C)[C@@H]2C1` [Maslinic acid], the IC50 turned out to be 9.41 ± 1.35 µM in data set [2] (Trypanosoma brucei, read-out: Tbb (IC50 μM)); 4.45 ± 0.64 µg/mL in data set [2] (Trypanosoma brucei, read-out: Tbb (IC50 μg/mL)); 44.1 ± 8.4 µM in data set [1] (Homo sapiens, WI-38, read-out: WI38 (IC50 μM)); 20.9 ± 3.97 µg/mL in data set [1] (Homo sapiens, WI-38, read-out: WI38 (IC50 μg/mL)). The “SI (Selectivity Index)” value in data set [2] is reported as 4.6.
`CC1(C)CC[C@]2(C(=O)O)CC[C@]3(C)C(=CC[C@@H]4[C@@]5(C)CC[C@H](O)C(C)(C)[C@@H]5CC[C@]43C)[C@@H]2C1` [Oleanolic acid]: the IC50 stood at 5.83 ± 0.7 µM in data set [2] (setting [6]), 2.66 ± 0.32 µg/mL in data set [2] (setting [7]), 63.3 ± 0.74 µM in data set [1] (setting [4]) and 28.9 ± 0.34 µg/mL in data set [1] (setting [5]). The “SI (Selectivity Index)” value in data set [2] is reported as 10.9.
Consider `Cc1ccc(C(=O)Nc2ccc(S(=O)(=O)O)c3cc(S(=O)(=O)O)cc(S(=O)(=O)O)c23)cc1NC(=O)c1cccc(NC(=O)Nc2cccc(C(=O)Nc3cc(C(=O)Nc4ccc(S(=O)(=O)O)c5cc(S(=O)(=O)O)cc(S(=O)(=O)O)c45)ccc3C)c2)c1` [Suramine], for which the IC50 in data set [2] (setting [6]) came to 0.038 ± 0.008 µM; in data set [2] (setting [7]), 0.05 ± 0.01 µg/mL. In addition, the “survival till the end of the experiment” value in data set [3] is given as “survive during all the experimental period”.
With `C[C@@H]1CC[C@]2(C(=O)O)CC[C@]3(C)C(=CC[C@@H]4[C@@]5(C)C[C@@H](O)[C@H](O)C(C)(C)[C@@H]5CC[C@]43C)[C@@H]2[C@]1(C)O` [Tormentic acid], the “Tbb (IC50 μg/mL)” value in data set [2] (setting [10]) was found to be 7.49 ± 0.33 µg/mL. Further, the IC50 in data set [2] (setting [11]) worked out at 15.3 ± 0.67 µM; in data set [1] (setting [4]) it was 54.2 ± 0.67 µM. Besides, the “WI38 (IC50 μg/mL)” value in data set [1] (setting [12]) stood at 26.48 ± 0.33 µg/mL.
Regarding Annurcoic acid, in data set [2] (setting [10]), the “Tbb (IC50 μg/mL)” value is 27.39 ± 2.24 µg/mL. Besides, the IC50 is 56.3 ± 4.6 µM in data set [2] (setting [11]) and 144 ± 14 µM in data set [1] (setting [4]). For the same compound, in data set [1] (setting [12]), the “WI38 (IC50 μg/mL)” value was 70.17 ± 6.82 µg/mL.
